# Results from the CheMixHub viscosity set.
# ± gives the uncertainty stated by the source.
# Assay: xn = mol fraction of the nth substance listed
# Details: 101 kPa
structure (smiles),measurement,setting,value
COc1ccccc1O + Cc1ccccc1,viscosity,"303.15 K, x2 = 0.1",3.17 ± 0.08 mPa·s
same,viscosity,"303.15 K, x2 = 0.2",2.47 ± 0.07 mPa·s
same,viscosity,"303.15 K, x2 = 0.3",1.83 ± 0.05 mPa·s
same,viscosity,"303.15 K, x2 = 0.4",1.5 ± 0.04 mPa·s
same,viscosity,"303.15 K, x2 = 0.5",1.2 ± 0.03 mPa·s
same,viscosity,"303.15 K, x2 = 0.6",0.981 ± 0.026 mPa·s
same,viscosity,"303.15 K, x2 = 0.7",0.815 ± 0.022 mPa·s
same,viscosity,"303.15 K, x2 = 0.8",0.7 ± 0.019 mPa·s
same,viscosity,"303.15 K, x2 = 0.9",0.599 ± 0.016 mPa·s
BrCCBr + ClCCCl,viscosity,"298.15 K, x2 = 0.175",1.421 ± 0.019 mPa·s
same,viscosity,"298.15 K, x2 = 0.3753",1.216 ± 0.016 mPa·s
same,viscosity,"298.15 K, x2 = 0.5066",1.117 ± 0.015 mPa·s
same,viscosity,"298.15 K, x2 = 0.6547",1.006 ± 0.013 mPa·s
same,viscosity,"298.15 K, x2 = 0.7793",0.9179 ± 0.012 mPa·s
same,viscosity,"298.15 K, x2 = 0.8501",0.8648 ± 0.011 mPa·s
COC(=O)CC(=O)OC + Cc1ccccc1,viscosity,"303.15 K, x1 = 0.0934",0.5584 ± 0.0058 mPa·s
same,viscosity,"303.15 K, x1 = 0.1891",0.6061 ± 0.0062 mPa·s
same,viscosity,"303.15 K, x1 = 0.2852",0.6706 ± 0.0068 mPa·s
same,viscosity,"303.15 K, x1 = 0.3836",0.7507 ± 0.0075 mPa·s
same,viscosity,"303.15 K, x1 = 0.4821",0.8493 ± 0.0084 mPa·s
same,viscosity,"303.15 K, x1 = 0.5831",0.9701 ± 0.0096 mPa·s
same,viscosity,"303.15 K, x1 = 0.6852",1.122 ± 0.011 mPa·s
same,viscosity,"303.15 K, x1 = 0.7891",1.307 ± 0.013 mPa·s
same,viscosity,"303.15 K, x1 = 0.8932",1.522 ± 0.015 mPa·s
C1COCCO1 + CCC(C)O,viscosity,"298.15 K, x1 = 0.0413",2.47 ± 0.063 mPa·s
same,viscosity,"298.15 K, x1 = 0.1256",1.88 ± 0.045 mPa·s
same,viscosity,"298.15 K, x1 = 0.236",1.474 ± 0.032 mPa·s
same,viscosity,"298.15 K, x1 = 0.3042",1.324 ± 0.027 mPa·s
same,viscosity,"298.15 K, x1 = 0.4175",1.173 ± 0.022 mPa·s
same,viscosity,"298.15 K, x1 = 0.5",1.133 ± 0.028 mPa·s
same,viscosity,"298.15 K, x1 = 0.5207",1.092 ± 0.018 mPa·s
same,viscosity,"298.15 K, x1 = 0.5916",1.061 ± 0.016 mPa·s
same,viscosity,"298.15 K, x1 = 0.7413",1.046 ± 0.014 mPa·s
same,viscosity,"298.15 K, x1 = 0.8431",1.071 ± 0.012 mPa·s
same,viscosity,"298.15 K, x1 = 0.9423",1.119 ± 0.011 mPa·s
C1COCCO1 + CCCCO,viscosity,"298.15 K, x1 = 0.0346",2.264 ± 0.021 mPa·s
same,viscosity,"298.15 K, x1 = 0.127",1.806 ± 0.017 mPa·s
same,viscosity,"298.15 K, x1 = 0.5",1.272 ± 0.061 mPa·s
same,viscosity,"298.15 K, x1 = 0.5917",1.099 ± 0.01 mPa·s
same,viscosity,"298.15 K, x1 = 0.6726",1.074 ± 0.01 mPa·s
same,viscosity,"298.15 K, x1 = 0.7123",1.07 ± 0.01 mPa·s
same,viscosity,"298.15 K, x1 = 0.768",1.073 ± 0.01 mPa·s
same,viscosity,"298.15 K, x1 = 0.8002",1.078 ± 0.01 mPa·s
same,viscosity,"298.15 K, x1 = 0.8852",1.091 ± 0.01 mPa·s
same,viscosity,"298.15 K, x1 = 0.9472",1.126 ± 0.011 mPa·s
COC(=O)CC(=O)OC + CCO,viscosity,"303.15 K, x1 = 0.0532",0.972 ± 0.0096 mPa·s
same,viscosity,"303.15 K, x1 = 0.1129",0.966 ± 0.0095 mPa·s
same,viscosity,"303.15 K, x1 = 0.1787",0.978 ± 0.0096 mPa·s
same,viscosity,"303.15 K, x1 = 0.2533",0.998 ± 0.0098 mPa·s
same,viscosity,"303.15 K, x1 = 0.337",1.037 ± 0.01 mPa·s
same,viscosity,"303.15 K, x1 = 0.4329",1.097 ± 0.011 mPa·s
same,viscosity,"303.15 K, x1 = 0.5426",1.181 ± 0.011 mPa·s
same,viscosity,"303.15 K, x1 = 0.6705",1.314 ± 0.013 mPa·s
same,viscosity,"303.15 K, x1 = 0.8207",1.513 ± 0.015 mPa·s
COc1ccccc1O + c1ccccc1,viscosity,"303.15 K, x2 = 0.1",3.4 ± 0.09 mPa·s
same,viscosity,"303.15 K, x2 = 0.2",2.49 ± 0.07 mPa·s
same,viscosity,"303.15 K, x2 = 0.3",1.97 ± 0.05 mPa·s
same,viscosity,"303.15 K, x2 = 0.4",1.57 ± 0.04 mPa·s
same,viscosity,"303.15 K, x2 = 0.5",1.29 ± 0.03 mPa·s
same,viscosity,"303.15 K, x2 = 0.6",1.04 ± 0.03 mPa·s
same,viscosity,"303.15 K, x2 = 0.7",0.873 ± 0.023 mPa·s
same,viscosity,"303.15 K, x2 = 0.8",0.742 ± 0.02 mPa·s
same,viscosity,"303.15 K, x2 = 0.9",0.641 ± 0.017 mPa·s
